# PubChem BioAssay AID1996
# Details: buffer; pH 7.4; 200.0 µM
row,Compound,solubility kinetic [µg/mL]
1,CC(=O)CC1(OC(C)=O)C(=O)N(C)c2ccccc21 (centres undefined),> 39.2
2,O=C(CCNC(=O)c1ccco1)Nc1cccc(C(F)(F)F)c1,> 48.9
3,Cc1ccccc1NC(=O)OCc1ccccc1,23.7
4,Clc1ccccc1C1Nc2cccc3cccc(c23)N1,7.5
5,CCc1ccc2oc(C(=O)Nc3cccnc3)c(C)c2c1,1
6,O=C(COC(=O)c1cc(=O)[nH]c2ccccc12)NCc1ccccc1,20.8
7,Cn1c(=O)c2c(nc(N3CCc4ccccc4C3)n2C)n(C)c1=O,43.2
8,COc1ccc(NC(=O)c2cc(-c3cccc(OC)c3)on2)cc1,< 0.3
9,Cc1nn(CC(=O)OCC(=O)NCCc2ccc(F)cc2)c(C)c1[N+](=O)[O-],> 56.8
10,O=C(CCCCCl)Nc1c2c(nc3ccccc13)CCC2,31.6
11,Cc1cc(C)cc(NS(=O)(=O)Cc2ccccc2)c1,39.5
12,Cn1cc(C(=O)OCC(=O)NC2CCCCC2)c2ccccc21,4.8
13,Cc1ccc2ncnc(Nc3cccc([N+](=O)[O-])c3)c2c1,5.9
14,CSc1nc2c(c(=O)[nH]1)C(c1cccc(Cl)c1)CC(=O)N2 (centres undefined),4.6
15,Cc1c(Cl)cccc1NC(=O)CSc1nccn1C,> 44.4
16,Nc1nc(Cl)cc(=O)n1Cc1ccc(Cl)cc1,28.1
17,COc1ccccc1C(C)NCC(=O)Nc1c(F)cccc1F (centres undefined),> 48.1
18,COc1ccc(-n2c3c(cc(C#N)c2=O)C(=O)CCC3)cc1,> 44.1
19,OCc1c[nH]c(=S)n1CCOc1cccc(C(F)(F)F)c1,5.5
20,Cc1ccccc1-c1nnc(SCC(=O)NC2CCS(=O)(=O)C2)n1C (centres undefined),> 57.1

row,Compound,solubility kinetic [µg/mL]
1,Cc1cc(C)cc(CC2CC(=O)N(c3ccc([N+](=O)[O-])cc3)C2=O)c1 (centres undefined),< 0.4
2,Cc1onc(-c2c(F)cccc2Cl)c1C(=O)c1ccccc1O,2.6
3,CN(CC(=O)NC(=O)Nc1ccccc1F)Cc1ccccc1F,2.7
4,Cc1nc2c(cnn2-c2ccccc2)c(=O)[nH]1,> 33.9
5,Cc1nc(C(=O)N2CCCC(C(=O)c3ccc(Cl)cc3)C2)cs1 (centres undefined),> 52.3
6,CC(C)(C)N=C(NS(=O)(=O)c1cccs1)c1ccccc1,> 48.4
7,COC(=O)C1(NC(=O)NC2CCCCC2)CCCCC1,> 42.4
8,COc1ccc(NC(=O)c2cccnc2SC)cc1OC,19.2
9,CC(Nc1cccc(C(=O)NC2CC2)c1)c1nnc(-c2ccccc2)o1 (centres undefined),> 52.3
10,Cc1cc(N2CCOCC2)nc(SCC(=O)OCc2ccccc2)n1,> 53.9
11,Cc1cc(C)cc(NS(=O)(=O)c2cccs2)c1,> 40.1
12,CC1C(=O)Nc2ccccc2N1C(=O)c1cccc(C(F)(F)F)c1 (centres undefined),> 50.1
13,COc1ccc(N2C(=O)CC(NCC#N)C2=O)cc1 (centres undefined),33.1
14,O=C(NC(=S)Nc1ccc(Cl)c(C(=O)O)c1)c1ccco1,> 48.7
15,CC(=O)Nc1ccc(S(=O)(=O)NCCC(=O)N2CCN(c3ccccc3Cl)CC2)cc1,> 69.7
16,COc1cc(OC)nc(NC(=O)NS(=O)(=O)c2ccccc2Cl)n1,45
17,CCOC(=O)N1CCN(S(=O)(=O)c2ccc(C)cc2)C1,38
18,Cc1ccc(C(C)NC(=O)c2c(-c3ccccc3)noc2C)cc1C (centres undefined),2.4
19,CC(c1ccccc1)C1CC(=O)N(c2ccc([N+](=O)[O-])cc2)C1=O (centres undefined),32.5
20,O=S(=O)(c1cccc2ccccc12)N1CCCCC1,17.3

row,Compound,solubility kinetic [µg/mL]
1,CCOC(=O)C1CCN(S(=O)(=O)c2ccc(C)c(C)c2)CC1,4.5
2,CN(Cc1nc(-c2ccc(Cl)cc2)no1)C(=O)c1ccco1,47.5
3,COc1ccccc1CNC(=O)COC(=O)c1cc(=O)c2ccccc2o1,> 55.1
4,C=CCNC(=O)c1cccc(NS(=O)(=O)c2ccc(Cl)cc2)c1,49.9
5,CC1(C)CC(=O)N(c2cc(Cl)ccc2Cl)C(=O)C1,14.7
6,Cc1cc(C(=O)NC(=S)Nc2cccc(C(=O)O)c2C)ccc1[N+](=O)[O-],> 56
7,CCCn1c(C)cc(C=O)c1C,16.3
8,COCCSc1ccccc1C(=O)NCCc1ccccc1,> 47.3
9,CS(=O)(=O)N1CCC(C(=O)Nc2ccc(F)cc2)CC1,> 45.1
10,COC(=O)c1ccc(NC(=S)NC2CC2)cc1,> 37.5
11,CCCc1nc(SCC(=O)c2ccc(OC)cc2)c2ccccc2n1,1.4
12,O=C1CCN(C(=S)NCc2ccccc2)CC1,> 37.3
13,CC1=CCC2C(=O)N(c3ccc(N4CCOCC4)cc3)C(=O)C2C1 (centres undefined),45.3
14,CCc1ccc(C)c(OC(=O)c2cncc(Br)c2)c1,2.1
15,N#C/C(=C\c1c(N2CCCCCC2)nc2ccccn2c1=O)C(N)=O,> 50.6
16,COc1ccc(Cl)cc1NC(=O)Cn1c(C)csc1=O,18.3
17,O=C(O)Cc1ccc(NC(=O)Nc2ccc3c(c2)OCO3)cc1,> 47.1
18,CCN1C(=O)CSC1=Nc1ccc(Cl)c(Cl)c1,9.8
19,COCCN(C(=O)COC(=O)Cc1c(C)nc2ccccc2c1C)c1c(N)n(CC(C)C)c(=O)[nH]c1=O,64.2
